Non-standard residues stand in square brackets, D forms with d. No end group written: not given here. *: point of attachment. pT = C[C@@H](OP(=O)(O)O)[C@H](N)C(=O)O; Myristoyl = CCCCCCCCCCCCCC(=O)*
How the values were obtained:
DRG neurons = assay: Current-clamp action potential firing in cultured DRG neurons; type: cell-based, rat
Experimental: (§1) Primary DRG neuronal cultures—Timed-pregnant Sprague-Dawley rats (Harlan, Indianapolis, Ind.) were used for culturing neurons. On the day of the dissection, rats were euthanized by CO2 asphyxiation and E15 embryos were extracted. DRG neurons were dissected from the embryos and enzymatically digested with Trypsin (2.5 mg/ml) at 37° C. for 45 min, followed by dissociation and plating. DRG neurons were plated onto poly-D-lysine (Sigma; 100 μg/ml) and laminin (Invitrogen; 3 μg/ml) coated coverslips. Neurons were maintained at 37° C. in a 7% CO2 humidified incubator in serum-free medium, comprised of the trophic factors N2 (Gemini Bio products; 1%), I-Glutamine (Invitrogen; 200 sg/ml), and Nerve Growth Factor (NGF) (Harlan; 100 ng/ml; essential for embryonic neuronal survival) in 50% DMEM and 50% F-12. The reliance of embryonic DRG neurons on NGF selects for the small-diameter population that is thought to underlie nociception and thermoception. Two successive days after DRG dissection, DRG neurons were cultured in C2 media containing the anti-mitotic agent cytosine β-d-arabinofuranoside hydrochloride (Sigma; 3 μM). This was followed by two days of recovery were neurons received regular serum free media before neurons were used for experiments. All subsequent experiments using embryonic cultures were performed on days 5-10 of neuronal culture.
Electrophysiology—All data was acquired using the Axopatch 200B amplifier (Molecular Devices,) and Multiclamp-700B (Molecular Devices, Sunnyvale, Calif.), digitized and filtered at 5 kHz. Data acquisition was monitored and controlled using pClamp 10 (Molecular Devices). Whole-cell patch-clamp recordings were performed on cultured DRG neurons, and CHO cells transiently transfected with WT or mutated Slack with Magi-1. Glass electrodes were pulled using a vertical pipette puller (Narishige International USA, Amityville, NY) and fire polished to be of 5-8 MΩ resistance. Pipettes were filled with solution containing (in mM) 124 K-gluconate, 2 MgCl2, 13.2 NaCl, 1 EGTA, 10 HEPES, 4 Mg-ATP, and 0.3 Na-GTP at pH 7.2 for neuronal recordings, and with 32.5 mM KCl, 97.5 mM potassium gluconate, 5 mM EGTA and 10 mM HEPES (pH 7.2) for CHO cell Slack and Slick recordings. […] In voltage-clamp mode, macroscopic currents were recorded at voltages ranging from −120 to +120. […] The cell capacitance for CHO cells ranged from 10-15 pF and for cultured DRG neurons 20-25 pF recorded under these conditions. […] Firing frequency of individual neurons was assessed by measurement of repetitive discharge upon injecting of a supra-threshold stimulus of 400 pA for 1000 ms. […] For TTX-resistant INa, DRG neurons were recorded in a bath solution containing 250 nM TTX. DRG neurons were recorded at voltages ranging from −60 to +60 mV. […]

Slack KNa channel = assay: Surface biotinylation of Slack channel in cultured DRG neurons; type: cell-based, rat; conditions: 24 hrs after PDZ peptide incubation, vs scrambled peptide B
Experimental: (§2) Western Blot Analysis—Total proteins were collected from transfected CHO cells, spinal cord and DRG. Tissue was homogenized in RIPA buffer supplemented in protease inhibitor cocktail (Sigma). Immunoblotting was performed as previously described. Briefly, proteins were separated on 4-15% Mini-PROTEAN TGX Precast Gel (Bio-Rad) and transferred to a 0.45 μm nitrocellulose membrane (BioRad). Membranes were probed overnight at 4° C. with antibodies against Slack anti-mouse (1:500; NeuroMab), rabbit anti-β-Actin (1:500; Millipore), rabbit anti-Magi-1 (1:100; Abcam), mouse anti-Magi-1 (1:100; Novus Biochemical), mouse anti-NaV1.8 (1:200; NeuroMab), mouse anti-NaV1.7 (1:200; NeuroMab), mouse anti-Flag (1:500; Sigma) in 5% milk prepared in 1×Tris-buffered saline tween (TBST). On the following day, the membrane was washed three times for five minutes in 1×TBST before being incubated for 1 hour at room temperature in Anti-mouse or Anti-rabbit horseradish peroxidase conjugate (1:5000; Promega) and 0.1% BSA prepared in 1×PBS. The membrane was again washed 3 times for 5 minutes before being developed and imaged. Bands were visualized with enhanced chemiluminescence (Thermo Scientific) and quantified with Image J Software (NIH). Each experiment was repeated at least three times.
(§3) Surface Protein Biotinylation—Plasma membrane protein expression was detected using a protein biotinylation assay. […]

INa in DRG neurons = assay: Whole-cell voltage-clamp recording of inward sodium current (INa); type: cell-based, rat; conditions: for INa (total / peak): 10 μM peptide, 24 hrs
Experimental: as §1, with “All subsequent experiments using embryonic cultures were performed on days 5-10 of neuronal culture.” left out
Electrophysiology—All data was acquired using the Axopatch 200B amplifier (Molecular Devices,) and Multiclamp-700B (Molecular Devices, Sunnyvale, Calif.), digitized and filtered at 5 kHz. Data acquisition was monitored and controlled using pClamp 10 (Molecular Devices). […] In voltage-clamp mode, macroscopic currents were recorded at voltages ranging from −120 to +120. […] The cell capacitance for CHO cells ranged from 10-15 pF and for cultured DRG neurons 20-25 pF recorded under these conditions. […] Firing frequency of individual neurons was assessed by measurement of repetitive discharge upon injecting of a supra-threshold stimulus of 400 pA for 1000 ms. […] For TTX-resistant INa, DRG neurons were recorded in a bath solution containing 250 nM TTX. DRG neurons were recorded at voltages ranging from −60 to +60 mV. […]

NaV1.8 = assay: Surface biotinylation / Western blot of NaV1.8 in cultured DRG neurons; type: cell-based, rat; conditions: 10 μM peptide, 24 hrs
Experimental: as §2
Surface Protein Biotinylation—Plasma membrane protein expression was detected using a protein biotinylation assay. Briefly, CHO cells or DRG neurons in six-well plates were used at 48 h after transient transfection of plasmid constructs or Magi-1 targeting siRNA respectively. For peptide incubation, neurons were incubated for 24 hrs. 160 μl of 10 mM Sulfo-NHS-SS-Biotin (Thermo Scientific) was added to each well and incubated at room temperature for 45 mins. The biotinylation reaction was terminated using 10 mM glycine (Quenching solution). Cells were harvested, washed in TBS and lysed on ice for 30 minutes in a lysis buffer/protease inhibitor cocktail. Lysates were collected and incubated with 500 uL of NeutrAvidin Agarose for 60 mins at room temperature with rotation. Following incubation, the column underwent centrifugation to collect the unbiotinylated protein. To elute the biotinylated proteins, sodium dodecyl sulfate (SDS) and dithiothreitol (DDT) were added to column membrane and incubated with rotation for 1 hour at room temperature. Biotinylated and unbiotinylated samples were probed for Slack or NaV1.8 and Actin protein by Western blot, as described above.

NaV1.7 = assay: Surface biotinylation of NaV1.7 in cultured DRG neurons; type: cell-based, rat; conditions: peptide treatment 24 hrs
Experimental: as §2, §3

[1] = Formalin test of acute inflammatory pain; type: in vivo, mice; conditions: single i.pl. injection 100 μM, 20 μl, 24 hrs before 5% formalin; vs scrambled peptide
From the text: In vivo transfection with jetPEI®/Magi-1 shRNA plasmid DNA polyplexes—The spinal nerve injection protocol was adopted from and optimized for spinal nerve injection in mice. Three days after baseline thermal behavior was established, mice were anesthetized using isoflurane (induction: 4% and maintenance: 2%), and placed in a prone position. A 3-cm posterior longitudinal skin incision was made at the lumbar segment of the spine. The ipsilateral paraspinal muscles were carefully separated, using a pair of sterile toothpicks, from their attachments at the L4˜S1 levels of the vertebral column. 1.5 μl of PEI/shRNA plasmid DNA polyplexes at an N/P ratio of 6 were injected directly in the spinal nerve of the right hind paw slowly using a syringe connected to a 26-gauge needle (Hamilton 80030, Hamilton, Reno, NV). Magi-1 shRNAs and control shRNA were purchased from Santa Cruz Biotechnology (Santa Cruz, CA, USA) and were identical to the siRNA sequences described above. After injection, the needle was held at the spinal nerve for 1 min to prevent leakage. […]
Formalin test—Mice were habituated in the behavior room for 15 minutes, then 30 minutes in the formalin chamber before formalin injection. […] The total time spent lifting, the total number of licks, and the number of flinches were recorded in 5 minute intervals for 60 minutes. […]

NPETRDETQL [PDZ peptide]
neurons exhibiting repetitive firing (DRG neurons; PDZ peptide treated, suprathreshold stimulation 400 pA, 1000 ms): 11/21 | Slack surface expression (Slack KNa channel): decreased

myristoyl-QPNTRLDETE (Myristoyl-QPNTRLDETE) [Scrambled peptide B, reference compound]
neurons firing one action potential followed by firing accommodation (DRG neurons; suprathreshold stimulation 400 pA, 1000 ms): 23/23

myristoyl-SATSFPPSYDSVTRG (Myristoyl-SATSFPPSYDSVTRG) [PY peptide]
neurons with AP firing almost completely abolished (DRG neurons; 10 μM peptide, 24 hrs): 10 of 11 | INa (total / peak) (INa in DRG neurons): almost complete loss | decrease in INa density (INa in DRG neurons; PY peptide incubation, 6 hours): 50% | NaV1.8 channels at the plasma membrane (surface expression) (NaV1.8): substantial decrease | total NaV1.8 protein (NaV1.8): substantial decrease | surface (biotinylated) NaV1.7 membrane expression (NaV1.7): unaltered | Phase II acute inflammatory pain (formalin) [1]: significantly reduced

myristoyl-SATSFPPSYDSV[pT]RG (Myristoyl-SATSFPPSYDSV[pT]RG) [phospho-PY peptide]
neurons with repetitive AP firing (DRG neurons; 10 μM peptide, 24 hrs, suprathreshold stimulation 400 pA, 1000 ms): 7 of 12 | INa (total / peak) (INa in DRG neurons): strongly increased | NaV1.8 channels at the plasma membrane (surface expression) (NaV1.8): significant increase | total NaV1.8 protein (NaV1.8): a statistically significant increase in input levels of NaV1.8 protein over 24 hours was not observed | surface (biotinylated) NaV1.7 membrane expression (NaV1.7): unaltered | Phase II acute inflammatory pain (formalin) [1]: increase

Reference: US12077610B2, “Peptides and other agents for treating pain and increasing pain sensitivity” (The Research Foundation for The State University of New York, priority 2017, dated 2024)
